According to PMC9289672, “Optimization of Antibacterial Activity in Tibetan Swine α-Helix Peptide TP by Site-Directed Mutagenesis” (Frontiers in Microbiology, 2022):
Like-named read-outs stand apart in the source and are kept apart here. Where no end group is shown, it is not given here.

Legend:
[1] = system: Gram-positive bacteria; assay: Geometric mean of MIC and therapeutic index; type: cell-based; conditions: MHC/GM; 128 μm used when 50% hemolysis not observed at 128 μm
Description: (§1) The bacteria were cultured overnight in the MHB medium and transferred to the new MHB the next day until the bacteria reached the exponential growth stage. The bacteria were diluted with MHB to 2 × 10^5 CFU/ml. About 50 μl of polypeptide and equal volume of bacterial suspension was added to a 96-well plate to give the final concentration of polypeptide between 1 and 128 μm. The last two columns are negative (MHB only) and positive (bacterial and MHB) controls and incubated at 37°C for 18–24 h. Optical density was measured at an absorbance wavelength of 492 nm using a microplate reader (Tecan GENios F129004, Tecan, Austria). At least three independent measurements were taken. Each trial was conducted two times in parallel. A total of three independent assays were carried out.
(§2) Trp is a hydrophobic amino acid with aromatic side chains. It is a special amino acid in peptide design. Previous studies have pointed out that introducing amino acids will also bring toxicity while improving activity. […] For further evaluating the cell selectivity of the peptides, we also calculated the SI which defined as the ratio of MHC to the geometric mean (GM) (Dufourc, [2008]).

[2] = system: Gram-negative bacteria; assay: Geometric mean of MIC and therapeutic index; type: cell-based; conditions: MHC/GM; 128 μm used when 50% hemolysis not observed at 128 μm
Description: as §1, §2

[3] = system: Methicillin-resistant Staphylococcus aureus (MRSA) 43300; conditions: Methicillin-resistant 43300
Text: (§3) The bacteria strains Escherichia coli ATCC 25922, Escherichia coli UB1005, Salmonella typhimurium ATCC 14028, Salmonella typhimurium C7731, Pseudomonas aeruginosa ATCC 27853, Pseudomonas aeruginosa PAO1, Staphylococcus aureus ATCC 29213, Staphylococcus aureus ATCC 25923, Methicillin-resistant Staphylococcus aureus (MRSA) 43300, Enterococcus faecalis ATCC 29212, and Staphylococcus epidermidis ATCC 12228 were obtained from the College of Veterinary Medicine, Northeast Agricultural University (Harbin, China).
as §1

[4] = system: Escherichia coli UB1005; conditions: MHB, bacteria diluted to 2 × 10^5 CFU/ml, peptide 1-128 μm, 37°C 18-24 h, OD 492 nm; three independent assays, two in parallel
Text: as §3, §1

[5] = system: Salmonella typhimurium C7731; conditions: MHB, bacteria diluted to 2 × 10^5 CFU/ml, peptide 1-128 μm, 37°C 18-24 h, OD 492 nm; three independent assays, two in parallel
Text: as §3, §1

[6] = system: Staphylococcus aureus ATCC 29213
Text: as §3, §1

[7] = system: Staphylococcus aureus ATCC 25923
Text: as §3, §1

[8] = system: Salmonella typhimurium ATCC 14028
Text: as §3, §1

[9] = system: Enterococcus faecalis ATCC 29212
Text: as §3, §1

[10] = system: Escherichia coli ATCC 25922
Text: as §3, §1

[11] = system: Staphylococcus epidermidis ATCC 12228
Text: as §3, §1

[12] = system: Pseudomonas aeruginosa ATCC 27853
Text: as §3, §1

[13] = system: Pseudomonas aeruginosa PAO1
Text: as §3, §1

[14] = system: hRBCs (human red blood cells); assay: Hemolytic activity; conditions: three independent assays, two in parallel
Description: (§5) The cytotoxicity of each peptide was assessed with IPEC-J12 and HEK 293T cells. […] Each trial was conducted two times in parallel. A total of three independent assays were carried out.

[15] = system: all strains in Table 2; assay: Geometric mean of MIC and therapeutic index; type: cell-based; conditions: MHC/GM; 128 μm used when 50% hemolysis not observed at 128 μm
Description: as §1
Trp is a hydrophobic amino acid with aromatic side chains. It is a special amino acid in peptide design. Previous studies have pointed out that introducing amino acids will also bring toxicity while improving activity. Therefore, at the beginning of the design, we predicted that selecting Trp as hydrophobic amino acid to substitute H-H position would bring certain toxicity to the peptide. Thus, as expected, the introduction of Trp increases the activity and toxicity of these peptides. […] Meanwhile, the virulence of TP(i+4) 1&2&5&6 and TP(i+4) 1&2&6&7 was lower than that of TP(i+4) 1&2&5&7. We infer that the location of hydrophobic centers can effectively reduce peptide toxicity by Trp substitution. For further evaluating the cell selectivity of the peptides, we also calculated the SI which defined as the ratio of MHC to the geometric mean (GM) (Dufourc, [2008]).

[16] = system: S. aureus 29213; type: cell-based, Staphylococcus aureus; conditions: 29213, 4 h
Description: (§4) The salt and serum stability of polypeptides were determined by improved MIC method (Lv et al., [2014]). Peptides were incubated with BSA containing different final concentrations of salt ions (150 mM NaCl, 4.5 mM KCl, 6 μm NH4Cl, 8 μm ZnCl2, 1 mM MgCl2, 2 mM CaCl2, and 4 μm FeCl3) (Wang et al., [2018]). To determine the stability of the peptide in serum, peptide was incubated with different proportions of serum (50%, 100%) at 37°C for 4 h. The following steps are the same as those for antimicrobial activity. Each trial was conducted two times in parallel. A total of three independent assays were carried out.

[17] = system: E. coli 25922; type: cell-based, Escherichia coli; conditions: 25922, 4 h
Description: as §4

[18] = system: hRBCs (human red blood cells)
Description: as §5

[19] = system: IPEC-J2 and HEK 293T cells
Description: as §5

| Substance | Therapeutic index (TI), Gram-positive bacteria [1] | Therapeutic index (TI), Gram-negative bacteria [2] | MIC, S. aureus 43300 [3] [µM] | MIC, E. coli UB1005 [4] [µM] | MIC, S. typhimurium 7731 [5] [µM] | MIC, S. aureus 29213 [6] [µM] | MIC, S. aureus 25923 [7] [µM] | MIC, S. typhimurium 14028 [8] [µM] | MIC, E. faecalis 29212 [9] [µM] | MIC, E. coli 25922 [10] [µM] | MIC, S. epidermidis 12228 [11] [µM] | MIC, P. aeruginosa 27853 [12] [µM] | MIC, P. aeruginosa PAO1 [13] [µM] | MHC (concentration of peptide that causes hemolysis of 50% of human red blood cells) [14] [µM] | Therapeutic index (TI) / selectivity index (SI), All [15] | other results |
| --- | --- | --- | --- | --- | --- | --- | --- | --- | --- | --- | --- | --- | --- | --- | --- | --- |
| AKVVNKLTKGVAKLLK-NH2 [TP(i+4) 2&3] | 1.00 | 2.00 | >128 | 8 | 128 | >128 | >128 | 128 | >128 | 32 | >128 | 128 | 128 | >128 | 1.41 | – |
| ASVVKKLTKGVAKLLK-NH2 [TP(i+4) 1&2] | 1.00 | 12.70 | >128 | 4 | 16 | >128 | >128 | 32 | >128 | 4 | >128 | 16 | 8 | – | 3.56 | MIC after incubation with 100% serum [16]: >64 µM; MIC in the presence of Ca2+ [16]: >64 µM; MIC in the presence of Fe3+ [16]: >64 µM; MIC in the presence of K+ [16]: >64 µM; MIC in the presence of Mg2+ [16]: >64 µM; MIC in the presence of NH4+ [16]: >64 µM; MIC in the presence of Na+ [16]: >64 µM; MIC in the presence of Zn2+ [16]: >64 µM; MIC, Control [16]: >64 µM; MIC after incubation with 100% serum [17]: 32 µM; MIC in the presence of Ca2+ [17]: >64 µM; MIC in the presence of Fe3+ [17]: 8 µM; MIC in the presence of K+ [17]: 8 µM; MIC in the presence of Mg2+ [17]: 32 µM; MIC in the presence of NH4+ [17]: 8 µM; MIC in the presence of Na+ [17]: >64 µM; MIC in the presence of Zn2+ [17]: 2 µM; MIC, Control [17]: 4 µM; MHC (concentration of peptide that causes hemolysis of 50% of human red blood cells) [18]: >128 µM |
| ASVVKKWTKGWAKLLK-NH2 [TP(i+4) 1&2&6] | 1.50 | 10.08 | 64 | 8 | 32 | 64 | 128 | 16 | 128 | 4 | 64 | 32 | 8 | >128 | 3.89 | cell viability [19]: ~ 50% |
| ASVVKKWWKGWWKLLK-NH2 [TP(i+4) 1&2&5&6] | 6.96 | 25.40 | 8 | 2 | 4 | 8 | 16 | 2 | 8 | 1 | 8 | 4 | 4 | 64.00 | 13.30 | – |
| ASVVKWLTKWVAKLLK-NH2 [TP(i+4) 1&2&7] | 18.39 | 14.25 | 4 | 4 | 8 | 2 | 4 | 4 | 4 | 4 | 4 | 4 | 4 | 64.00 | 16.19 | – |
| ASVVKWLWKWVWKLLK-NH2 [TP(i+4) 1&2&5&7] | 6.06 | 1.26 | 16 | 16 | >128 | 8 | 16 | 32 | 8 | 16 | 8 | >128 | >128 | 64.00 | 2.76 | – |
| ASVVKWWTKWWAKLLK-NH2 [TP(i+4) 1&2&6&7] | 27.83 | 12.70 | 4 | 4 | 8 | 2 | 2 | 4 | 2 | 4 | 2 | 8 | 4 | 64.00 | 18.80 | – |
| ASVVKWWWKWWWKLLK-NH2 [TP(i+4) 1&2&5&6&7] | 3.03 | 3.17 | 4 | 2 | 4 | 2 | 4 | 2 | 2 | 1 | 2 | 4 | 4 | 8.00 | 3.10 | – |
| ASVVNKLTKKVAKLLK-NH2 [TP(i+4) 2&4] | 1.00 | 8.00 | >128 | 8 | 16 | >128 | >128 | 64 | >128 | 8 | >128 | 32 | 8 | – | 2.83 | MHC (concentration of peptide that causes hemolysis of 50% of human red blood cells) [18]: >128 µM |
